Measured values reported in ChEMBL document CHEMBL6114943, “Engineered Cyclotide Blocks Neuronal Excitotoxicity” (J Med Chem, 2025).
*1 amine or outer side, *2 acyl side, *3 side chain or, on linkers, in order; H or OH if unused. Where a SMILES comes first, the peptide text is derived from it. Bridges are numbered along the chain shown (N, C = ends). The star is where a group is joined. X2 = CC(C)C[C@H](C(=O)[C@H](CCCCNC(=O)c1ccc(-c2c3ccc(=[N+](C)C)cc-3oc3cc(N(C)C)ccc23)c(C(=O)[O-])c1)N[*:2])C(=O)[*:1]; X1 = CC[N+]1=C(/C=C/C=C/C=C/C=C2/N(CCCCCC(=O)*)c3ccc(S(=O)(=O)O)cc3C2(C)C)C(C)(C)c2cc(S(=O)(=O)[O-])ccc21

How the values were obtained:
[1] = Stability in C57BL/6 mouse plasma assessed as drug degradation at 100 uM measured after 5 hrs in presence of alteplase by HPLC analysis; format: ADME, cell-free
[2] = Stability in C57BL/6 mouse plasma assessed as drug degradation by measuring parent compound remaining at 100 uM measured after 5 hrs by HPLC analysis; format: ADME, cell-free; details: read-out: Stability
[3] = Stability in C57BL/6 mouse plasma assessed as parent compound remaining at 100 uM measured after 24 hrs by HPLC analysis; format: ADME, cell-free; details: read-out: Stability
[4] = Stability in C57BL/6 mouse plasma assessed as drug degradation by measuring parent compound remaining at 100 uM measured after 5 hrs in presence of alteplase by HPLC analysis; format: ADME, cell-free; details: read-out: Stability
[5] = Drug uptake in mouse Primary neuron at 500 nM incubated for 60 mins by inverted confocal microscopic analysis relative to control; format: ADME, cell-based; details: 1 h, 0.5 µM
[6] = Drug uptake in mouse Primary neuron at 100 nM incubated for 60 mins by inverted confocal microscopic analysis relative to control; format: ADME, cell-based; details: 1 h, 0.1 µM
[7] = Stability in C57BL/6 mouse plasma assessed as parent compound remaining at 100 uM measured after 24 hrs in presence of alteplase by HPLC analysis; format: ADME, cell-free; details: read-out: Stability
[8] = Biodistribution in C57BL/6 mouse liver at 3 nmol/g, iv measured after 90 mins post injection by fluorescence based analysis; format: ADME, organism-based; details: in vivo, 1.5 h
[9] = Biodistribution in C57BL/6 mouse lung at 3 nmol/g, iv measured after 90 mins post injection by fluorescence based analysis; format: ADME, organism-based; details: in vivo, 1.5 h
[10] = Biodistribution in C57BL/6 mouse heart at 3 nmol/g, iv measured after 90 mins post injection by fluorescence based analysis; format: ADME, organism-based; details: in vivo, 1.5 h
[11] = Biodistribution in C57BL/6 mouse kidney at 3 nmol/g, iv measured after 90 mins post injection by fluorescence based analysis; format: ADME, organism-based; details: in vivo, 1.5 h
[12] = Biodistribution in C57BL/6 mouse spleen at 3 nmol/g, iv measured after 24 hrs post injection by fluorescence based analysis; format: ADME, organism-based; details: in vivo
[13] = Biodistribution in C57BL/6 mouse brain at 3 nmol/g, iv measured after 90 mins post injection by fluorescence based analysis; format: ADME, organism-based; details: in vivo, 1.5 h
[14] = Biodistribution in C57BL/6 mouse spleen at 3 nmol/g, iv measured after 90 mins post injection by fluorescence based analysis; format: ADME, organism-based; details: in vivo, 1.5 h
[15] = Biodistribution in C57BL/6 mouse lung at 3 nmol/g, iv measured after 24 hrs post injection by fluorescence based analysis; format: ADME, organism-based; details: in vivo

Stability [1]	remaining at 5 h, 100 µM [2]	remaining at 24 h, 100 µM [3]	remaining at 5 h, 100 µM [4]	Drug uptake [5]	Drug uptake [6]	remaining at 24 h, 100 µM [7]	Drug uptake [8]	Drug uptake [9]	Drug uptake [10]	Drug uptake [11]	Drug uptake [12]	Drug uptake [13]	Drug uptake [14]	Drug uptake [15]	Compound
Unstable	93%	90%	93%	85.7%	75.9%	90%									CC[C@H](C)[C@@H]1NC(=O)[C@@H]2CSSC[C@@H]3NC(=O)[C@H](C(C)C)NC(=O)[C@H](CC(=O)O)NC(=O)[C@H](CO)NC(=O)[C@H](CCC(=O)O)NC(=O)[C@H]([C@@H](C)CC)NC(=O)[C@H](CO)NC(=O)[C@H](CO)NC(=O)[C@H](CC(C)C)C(=O)[C@H](CCCCNC(=O)c4ccc(-c5c6ccc(=[N+](C)C)cc-6oc6cc(N(C)C)ccc56)c(C(=O)[O-])c4)NC(=O)[C@@H]4CSSC[C@H](NC(=O)[C@H](CC(=O)O)NC(=O)[C@H](CO)NC(=O)[C@H](CC(=O)O)NC(=O)[C@H](CCCNC(=N)N)NC(=O)[C@H](CCCNC(=N)N)NC(=O)[C@H](CSSC[C@H](NC1=O)C(=O)N[C@@H](CCCNC(=N)N)C(=O)NCC(=O)N[C@@H](CC(N)=O)C(=O)NCC(=O)N[C@@H](Cc1ccc(O)cc1)C(=O)N4)NC(=O)[C@H](CCCNC(=N)N)NC(=O)[C@H](CCCNC(=N)N)NC(=O)[C@H](CCCNC(=N)N)NC(=O)[C@H](CCCNC(=N)N)NC(=O)[C@H](CC(C)C)NC(=O)[C@H]([C@@H](C)CC)NC(=O)[C@H](CCCNC(=N)N)NC(=O)[C@@H]1CCCN1C3=O)C(=O)N1CCC[C@H]1C(=O)NCC(=O)N[C@@H](C)C(=O)N2 (SSIESDVCPRILRRRRCRRDSDCPGACICRGNGYC; disulfide 8-27, 17-29, 23-35; linker N-C via X2)
							Active	Active	Active	Active	Not_active	Active	Active	Not_active	CC[C@H](C)[C@H](NC(=O)[C@H](CO)NC(=O)[C@H](CO)NC(=O)[C@H](CC(C)C)NC(=O)[C@H](CCCCN)NC(=O)[C@H](CCCNC(=N)N)NC(=O)[C@H](CCCNC(=N)N)NC(=O)[C@H](CCCNC(=N)N)NC(=O)[C@H](CCC(N)=O)NC(=O)[C@H](CCCNC(=N)N)NC(=O)[C@H](CCCNC(=N)N)NC(=O)[C@H](CCCCN)NC(=O)[C@H](CCCCN)NC(=O)[C@H](CCCNC(=N)N)NC(=O)CNC(=O)[C@H](Cc1ccc(O)cc1)NC(=O)CCCCCN1/C(=C/C=C/C=C/C=C/C2=[N+](CC)c3ccc(S(=O)(=O)[O-])cc3C2(C)C)C(C)(C)c2cc(S(=O)(=O)O)ccc21)C(=O)N[C@@H](CCC(=O)O)C(=O)N[C@@H](CO)C(=O)N[C@@H](CC(=O)O)C(=O)N[C@H](C(=O)O)C(C)C (X1-YGRKKRRQRRRKLSSIESDV-OH)
